Columns and labels:
Format in all cases: in vivo, Wistar rat
[1] = tested on: rats exposed to acute altitude hypoxia; assay: Blood glucose in rats exposed to acute altitude hypoxia (6000 m, 8 h, after 7 days intragastric)
Method: (§1) Select healthy Wistar rats weight 160-200 g, half female and half male. After feeding for 3 days, these Wistar rats are randomly divided into ten groups according to their body weight, each group has 16±2 rats. The groups are divided as follows: five groups of the hypoxic exposure drug test group, respectively, are given 0.91 mg/kg, 1.83 mg/kg, 3.66 mg/kg, 7.31 mg/kg, and 14.63 mg/kg drugs. […] After continuous intragastric administration for 7 days, the animals in the hypoxic exposure group are simultaneously put into the decompression and hypoxia compound experimental chamber, the hatch is closed, and the pressure is reduced at a speed of 10 m/s. After being raised to an altitude of 6000 m and maintained for 8 hours, the speed in 10 m/s drops is reduced to normal altitude, open the hatch, and then take out the animal, collect blood samples (after standing for 1 hour, the supernatant is centrifuged and stored at −20° C.), and liver tissue samples. Detection indicator includes body weight, serum blood glucose, ATP, lactic acid, endothelin, nitric oxide, SOD, CO, MDA related to oxidative stress, and total protein, albumin, triglycerides, total cholesterol, high-density lipoprotein cholesterol, low-density lipoprotein cholesterol, glutamic pyruvic transaminase, total bilirubin, gluamic oxalacetic transaminase, serum urea nitrogen, creatinine, uric acid, lactate dehydrogenase, creatine kinase, α-hydroxybutyrate dehydrogenase; liver ATP, hepatic glycogen. Except that the formal oxygen control animal group is not put into the decompression and hypoxia compound experimental chamber, other experimental conditions and detection indicators are the same.
(§2) Measure blood glucose, total protein, albumin, triglycerides, total cholesterol, high-density lipoprotein cholesterol, low-density lipoprotein cholesterol, glutamic-pyruvic transaminase, total bilirubin, glutamic oxalacetic transaminase, serum urea nitrogen, creatinine, uric acid, lactate dehydrogenase, creatine kinase, α-hydroxybutyrate dehydrogenase, blood homocysteine by using an automatic blood biochemical analyzer.

[2] = tested on: rats exposed to acute altitude hypoxia; assay: Lipid metabolism in rats exposed to acute altitude hypoxia
Method: as §1, §2

[3] = tested on: rats exposed to acute altitude hypoxia; assay: Liver function of rats exposed to acute altitude hypoxia
Method: as §1, §2

[4] = tested on: rats exposed to acute altitude hypoxia; assay: Endothelial function (serum endothelin-1, nitric oxide) in rats exposed to acute altitude hypoxia
Source text: This method uses nitrate reductase specificity reduce NO^3− to NO^2−, and then determine the level of its concentration by displaying shades of color. Operate according to the kit instructions, measure the absorbance of each tube at a wavelength of 550 nm, and then calculate the content of nitric oxide of the sample to be tested according to the formula. To the coated microwells pre-coated with rat endothelin (endothelin-1) capture antibody, add in sequence specimens, standards, and HRP-labeled detection antibody, and then incubate and wash thoroughly. Use a substrate TMB for color development. TMB is converted into blue under the catalysis of peroxidase and converted into the final yellow color under the action of acid. The color intensity is positively correlated with the rat endothelin (endothelin-1) in the sample.

[5] = acute hypoxia exposed female rats
[6] = female rats, hypoxia, 0.91 mg/kg
[7] = female rats, hypoxia, 1.83 mg/kg
[8] = female rats, hypoxia, 3.66 mg/kg
[9] = female rats, hypoxia, 7.31 mg/kg
[10] = female rats, hypoxia, 14.63 mg/kg
[11] = female rats, normoxia, 3.66 mg/kg
[12] = male rats, hypoxia, 14.63 mg/kg
[13] = female rats after acute hypoxia exposure

In the case of `O=C(O)c1cc(C(=O)O)c2c(n1)C(=O)C(=O)c1cc(C(=O)O)[nH]c1-2` [PQQ, pyrroloquinoline quinone], the “effect on blood glucose” value [1, 5] is reported as “increasing blood glucose”, the Blood sugar [1, 6] is reported as 8.59 ± 0.48 mmol/L and the Blood sugar [1, 7] is reported as 8.28 ± 0.84 mmol/L. For the same molecule, the Blood sugar [1, 8] was 8.27 ± 0.37 mmol/L, the Blood sugar [1, 9] was 7.91 ± 0.65 mmol/L and the Blood sugar [1, 10] was 7.55 ± 0.48 mmol/L. The “effect on blood glucose” value ([1]; female rats, normoxia) was “no significant effects”, the Blood sugar [1, 11] was 8.13 ± 0.57 mmol/L and the “effect on blood glucose level” value ([1]; male rats) was “no significant effects”. For the same molecule, the Blood sugar ([1]; male rats, hypoxia, 0.91 mg/kg) was 7.35 ± 1.94 mmol/L, the Blood sugar ([1]; male rats, hypoxia, 1.83 mg/kg) was 8.21 ± 1.46 mmol/L and the Blood sugar ([1]; male rats, hypoxia, 3.66 mg/kg) was 8.97 ± 1.44 mmol/L. The Blood sugar ([1]; male rats, hypoxia, 7.31 mg/kg) was 8.28 ± 1.57 mmol/L, the Blood sugar [1, 12] was 8.85 ± 2.04 mmol/L and the “High density lipoprotein cholesterol” value [2, 6] was 1.30 ± 0.07 mmol/L. The “Low density lipoprotein cholesterol” value [2, 6] was 0.12 ± 0.01 mmol/L, the Total cholesterol [2, 6] was 1.69 ± 0.11 mmol/L and the “High density lipoprotein cholesterol” value [2, 7] was 1.18 ± 0.14 mmol/L. For the same molecule, the “Low density lipoprotein cholesterol” value [2, 7] was 0.10 ± 0.02 mmol/L, the Total cholesterol [2, 7] was 1.56 ± 0.17 mmol/L and the “High density lipoprotein cholesterol” value [2, 8] was 1.14 ± 0.10 mmol/L. For the same molecule, the “Low density lipoprotein cholesterol” value [2, 8] was 0.10 ± 0.02 mmol/L, the Total cholesterol [2, 8] was 1.47 ± 0.11 mmol/L and the “High density lipoprotein cholesterol” value [2, 9] was 1.27 ± 0.09 mmol/L. The “Low density lipoprotein cholesterol” value [2, 9] was 0.10 ± 0.02 mmol/L, the Total cholesterol [2, 9] was 1.69 ± 0.09 mmol/L and the “High density lipoprotein cholesterol” value [2, 10] was 1.28 ± 0.11 mmol/L. The “Low density lipoprotein cholesterol” value [2, 10] was 0.11 ± 0.02 mmol/L, the Total cholesterol [2, 10] was 1.64 ± 0.13 mmol/L and the “effect on total cholesterol, low-density and high-density lipoprotein cholesterol” value ([2]; female rats, normoxia) was “no significant effects”. The “High density lipoprotein cholesterol” value [2, 11] was 1.39 ± 0.10 mmol/L, the “Low density lipoprotein cholesterol” value [2, 11] was 0.14 ± 0.03 mmol/L and the Total cholesterol [2, 11] was 1.87 ± 0.10 mmol/L. For the same molecule, the “effect on total cholesterol, low-density and high-density lipoprotein cholesterol” value ([2]; hypoxia exposed female rats) was “no significant effects”, the effect on triglycerides ([2]; male rats exposed to hypoxia) was “is not found” and the “High density lipoprotein cholesterol” value ([2]; male rats, hypoxia, 0.91 mg/kg) was 1.03 ± 0.09 mmol/L. The “Low density lipoprotein cholesterol” value ([2]; male rats, hypoxia, 0.91 mg/kg) was 0.16 ± 0.03 mmol/L, the Total cholesterol ([2]; male rats, hypoxia, 0.91 mg/kg) was 1.47 ± 0.15 mmol/L and the Triglycerides ([2]; male rats, hypoxia, 0.91 mg/kg) was 1.25 ± 0.64 mmol/L. For the same molecule, the “High density lipoprotein cholesterol” value ([2]; male rats, hypoxia, 1.83 mg/kg) was 1.23 ± 0.11 mmol/L, the “Low density lipoprotein cholesterol” value ([2]; male rats, hypoxia, 1.83 mg/kg) was 0.20 ± 0.02 mmol/L and the Total cholesterol ([2]; male rats, hypoxia, 1.83 mg/kg) was 1.71 ± 0.90 mmol/L. The Triglycerides ([2]; male rats, hypoxia, 1.83 mg/kg) was 1.06 ± 0.35 mmol/L, the “High density lipoprotein cholesterol” value ([2]; male rats, hypoxia, 3.66 mg/kg) was 1.28 ± 0.09 mmol/L and the “Low density lipoprotein cholesterol” value ([2]; male rats, hypoxia, 3.66 mg/kg) was 0.19 ± 0.04 mmol/L. For the same molecule, the Total cholesterol ([2]; male rats, hypoxia, 3.66 mg/kg) was 1.80 ± 0.16 mmol/L, the Triglycerides ([2]; male rats, hypoxia, 3.66 mg/kg) was 1.36 ± 0.58 mmol/L and the “High density lipoprotein cholesterol” value ([2]; male rats, hypoxia, 7.31 mg/kg) was 1.23 ± 0.10 mmol/L. For the same molecule, the “Low density lipoprotein cholesterol” value ([2]; male rats, hypoxia, 7.31 mg/kg) was 0.16 ± 0.02 mmol/L, the Total cholesterol ([2]; male rats, hypoxia, 7.31 mg/kg) was 1.69 ± 0.10 mmol/L and the Triglycerides ([2]; male rats, hypoxia, 7.31 mg/kg) was 1.35 ± 0.36 mmol/L. For the same molecule, the “High density lipoprotein cholesterol” value [2, 12] was 1.44 ± 0.15 mmol/L, the “Low density lipoprotein cholesterol” value [2, 12] was 0.19 ± 0.03 mmol/L and the Total cholesterol [2, 12] was 1.95 ± 0.15 mmol/L. For the same molecule, the Triglycerides [2, 12] was 1.40 ± 0.74 mmol/L, the “effect on low density lipoprotein cholesterol” value ([2]; male rats, low-dose) was “no significant effects” and the “effect on total cholesterol and high-density lipoprotein cholesterol” value ([2]; male rats, low-dose) was “reducing the amount”. The “effect on serum glutamic-pyruvic transaminase and glutamic oxalacetic transaminase activities” value [3, 5] was “has been not found”, the Glutamic oxalacetic transaminase [3, 6] was 80.71 ± 12.49 U and the Glutamic-pyruvic transaminase [3, 6] was 29.86 ± 4.30 U. The Glutamic oxalacetic transaminase [3, 7] was 84.71 ± 18.97 U, the Glutamic-pyruvic transaminase [3, 7] was 27.86 ± 6.28 U and the Glutamic oxalacetic transaminase [3, 8] was 82.29 ± 17.75 U. For the same molecule, the Glutamic-pyruvic transaminase [3, 8] was 32.57 ± 5.35 U, the Glutamic oxalacetic transaminase [3, 9] was 79.29 ± 16.06 U and the Glutamic-pyruvic transaminase [3, 9] was 32.57 ± 6.37 U. The Glutamic oxalacetic transaminase [3, 10] was 83.00 ± 20.18 U, the Glutamic-pyruvic transaminase [3, 10] was 36.57 ± 8.52 U and the “effect on aspartate aminotransferase activity” value ([3]; female rats, normoxia) was “slightly increasing”. For the same molecule, the “effect on glutamic-pyruvic transaminase” value ([3]; female rats, normoxia) was “no significant effect”, the Glutamic oxalacetic transaminase [3, 11] was 120.29 ± 11.90 U and the Glutamic-pyruvic transaminase [3, 11] was 37.14 ± 4.45 U. For the same molecule, the “effect on serum glutamic-pyruvic transaminase, glutamic oxalacetic transaminase and total bilirubin” value ([3]; male rats exposed to acute hypoxia) was “is not found”, the Glutamic oxalacetic transaminase ([3]; male rats, hypoxia, 0.91 mg/kg) was 79.17 ± 15.66 U and the Glutamic-pyruvic transaminase ([3]; male rats, hypoxia, 0.91 mg/kg) was 36.63 ± 8.30 U. It also gave a Total bilirubin ([3]; male rats, hypoxia, 0.91 mg/kg) of 0.51 ± 0.12 µmol/L, a Glutamic oxalacetic transaminase ([3]; male rats, hypoxia, 1.83 mg/kg) of 85.80 ± 13.80 U and a Glutamic-pyruvic transaminase ([3]; male rats, hypoxia, 1.83 mg/kg) of 40.63 ± 5.18 U. It also gave a Total bilirubin ([3]; male rats, hypoxia, 1.83 mg/kg) of 0.59 ± 0.12 µmol/L, a Glutamic oxalacetic transaminase ([3]; male rats, hypoxia, 3.66 mg/kg) of 99.00 ± 15.52 U and a Glutamic-pyruvic transaminase ([3]; male rats, hypoxia, 3.66 mg/kg) of 42.50 ± 4.93 U. It also gave a Total bilirubin ([3]; male rats, hypoxia, 3.66 mg/kg) of 0.60 ± 0.15 µmol/L, a Glutamic oxalacetic transaminase ([3]; male rats, hypoxia, 7.31 mg/kg) of 94.40 ± 12.28 U and a Glutamic-pyruvic transaminase ([3]; male rats, hypoxia, 7.31 mg/kg) of 43.13 ± 8.92 U. The Total bilirubin ([3]; male rats, hypoxia, 7.31 mg/kg) was 0.46 ± 0.15 µmol/L, the Glutamic oxalacetic transaminase [3, 12] was 109.00 ± 11.68 U and the Glutamic-pyruvic transaminase [3, 12] was 48.25 ± 8.86 U. For the same molecule, the Total bilirubin [3, 12] was 0.53 ± 0.15 µmol/L, the “effect on nitric oxide” value [4, 13] was “no significant effect” and the “effect on serum endothelin-1 content” value [4, 13] was “can increase”. For the same molecule, the Endothelin-1 [4, 6] was 64.75 ± 2.72 ng/mL, the Nitric oxide [4, 6] was 3.50 ± 1.24 µmol/L and the Endothelin-1 [4, 7] was 63.21 ± 4.33 ng/mL.
